Source: publication PMC3020970, “K70Q Adds High-Level Tenofovir Resistance to “Q151M Complex” HIV Reverse Transcriptase through the Enhanced Discrimination Mechanism” (PLoS ONE, 2011)
“And” between values parts separate entries of the source, which are not always exact repeats. Identical values can stand only once.

What was measured:
Assay in all cases: Pre-steady state kinetics of binding and incorporation
Assay type in all cases: biochemical
HIV-1 RT K70Q = biological target: T1, HIV-1 RT K70Q (Human immunodeficiency virus type 1 group M subtype B, UniProt P03366, K669Q)
T1 construct: made in house; host or cells: Escherichia coli BL21
Description: (§1) The reactions were quenched at various times (10 ms to 5 s) by adding EDTA to a final concentration of 50 mM. The amounts of product (P18-dAMP) were quantitated and fit to the following burst equation: [drawing 1] (1) where A is the amplitude of the burst phase that represents the RT-DNA complex at the start of the reaction, k obs is the observed burst rate constant for dNTP incorporation, k ss is the steady state rate constant, and t is the reaction time. The rate constant of the linear phase (kcat) can be estimated by dividing the slope of the linear phase by the enzyme concentration. The active site concentration and template/primer binding affinity (KD-DNA) were determined by plotting the amplitude (A) against the concentration of template/primer. The data were fit using non-linear regression to a quadratic equation: [drawing 2] (2) where KD is the dissociation constant for the RT-DNA complex, and [RT] is the concentration of active polymerase molecules. Subsequent biochemical experiments were performed using corrected active site concentrations, [43].
(§2) HIV-1 RT (50 nM active sites) was pre-incubated with 50 nM T31/P18 in one syringe (Syringe A), whereas varying concentrations of dNTP and 10 mM MgCl2 were kept in another syringe (Syringe B). The solutions were rapidly mixed to initiate reactions, which were subsequently quenched at various times (5 ms to 10 s) by adding EDTA to a final concentration of 50 mM. The products from each quenched reaction were resolved, quantitated, and plotted as described above. The data were fit by non-linear regression to the burst equation (Eq 1).
(§3) To obtain the dissociation constant KD-dNTP for dNTP binding to the RT-DNA complex, the observed burst rates (kobs) were fit to the hyperbolic equation (Eq. 3) using nonlinear regression: [drawing 3] (3) where kpol is the optimal rate of dNTP incorporation.

HIV-1 RT K70Q/Q151Mc = biological target: T2, HIV-1 RT K70Q/Q151Mc (Human immunodeficiency virus type 1 group M subtype B, UniProt P03366, A661V/F676L/F715Y/K669Q/Q750M/V674I)
T2 construct: made in house; host or cells: Escherichia coli BL21
Description: as §1, with “Determination of active site concentrations in the different preparations of WT and mutant RTs were performed using pre-steady state burst experiments. […] The reactions” for “The reactions”
as §2, §3
(§4) The kinetics of TFV incorporation by the WT and mutant enzymes were carried out in a manner similar to that employed for natural dNTP substrate except the time of reactions. It was noted that the mutant enzymes required longer time to incorporate TFV compared to the WT HIV-1 RT (detailed in the Results section).

HIV-1 RT Q151Mc = biological target: T3, HIV-1 RT Q151Mc (Human immunodeficiency virus type 1 group M subtype B, UniProt P03366, A661V/F676L/F715Y/Q750M/V674I)
T3 construct: made in house; host or cells: Escherichia coli BL21
Description: as §1, with “Determination of active site concentrations in the different preparations of WT and mutant RTs were performed using pre-steady state burst experiments. […] The reactions” for “The reactions”
as §2, §3, §4

HIV-1 RT WT = biological target: T4, HIV-1 RT WT (Human immunodeficiency virus type 1 group M subtype B, UniProt P03366)
T4 construct: made in house; host or cells: Escherichia coli BL21
Description: as §1, with “Determination of active site concentrations in the different preparations of WT and mutant RTs were performed using pre-steady state burst experiments. […] The reactions” for “The reactions”
as §2, §3, §4

CC(Cn1cnc2c(N)ncnc21)OCP(=O)(O)OP(=O)(O)OP(=O)(O)O (stereo in doubt) [TFV-DP, tenofovir-diphosphate]
Selectivity (k pol/Kd)dATP/(k pol/Kd)TFV-DP (HIV-1 RT K70Q; K70Q RT): 6.1
k pol/Kd (HIV-1 RT K70Q; K70Q RT): 360000 M⁻¹ s⁻¹ and 360000 ± 80000 M⁻¹ s⁻¹
Reduced affinity for TFV than the WT enzyme (HIV-1 RT K70Q; K70Q RT vs WT RT): more than 4.5 fold
k pol (HIV-1 RT K70Q; K70Q RT, T31/P18, 37°C): 3.1 s⁻¹ and 3.1 ± 0.4 s⁻¹
Kd (HIV-1 RT K70Q; K70Q RT, binding to RT-DNA complex): 8.6 ± 1.5 µM
Selectivity (k pol/Kd)dATP/(k pol/Kd)TFV-DP (HIV-1 RT K70Q/Q151Mc; K70Q/Q151Mc RT): 26.3
k pol/Kd (HIV-1 RT K70Q/Q151Mc; K70Q/Q151Mc RT): 110000 M⁻¹ s⁻¹ and 110000 ± 30000 M⁻¹ s⁻¹
Reduced affinity for TFV than the WT enzyme (HIV-1 RT K70Q/Q151Mc; K70Q/Q151Mc RT vs WT RT): more than 4.5 fold
k pol (HIV-1 RT K70Q/Q151Mc; K70Q/Q151Mc RT, T31/P18, 37°C): 1.0 ± 0.03 s⁻¹
Kd (HIV-1 RT K70Q/Q151Mc; K70Q/Q151Mc RT, binding to RT-DNA complex): 8.9 ± 2.1 µM
Selectivity (k pol/Kd)dATP/(k pol/Kd)TFV-DP (HIV-1 RT Q151Mc): 11
k pol/Kd (HIV-1 RT Q151Mc): 300000 M⁻¹ s⁻¹ and 300000 ± 60000 M⁻¹ s⁻¹
k pol (HIV-1 RT Q151Mc; T31/P18, 37°C): 1.3 ± 0.03 s⁻¹
Kd (HIV-1 RT Q151Mc; binding to RT-DNA complex): 4.3 ± 0.8 µM
Selectivity (k pol/Kd)dATP/(k pol/Kd)TFV-DP (HIV-1 RT WT): 1.6
k pol/Kd (HIV-1 RT WT): 1.47e+06 M⁻¹ s⁻¹ and 1.47e+06 ± 70000 M⁻¹ s⁻¹
k pol (HIV-1 RT WT; T31/P18, 37°C): 2.8 s⁻¹ and 2.8 ± 0.08 s⁻¹
Kd (HIV-1 RT WT; binding to RT-DNA complex): 1.9 ± 0.2 µM
